Several values for one entry are separate records, joined by “and”; a condition that tells them apart may be missing. Equal entries are not always repeated.

Series [1] concerns ICR mice. Nature of the series: Deaths and adverse signs observed in writhing-study mice. The format is in vivo. On the procedure:
(§1) Testing on compound KRS-6-48 was carried out under contract by MDS Services—Taiwan Ltd. KRS-6-48 was evaluated for possible analgesic activity in the phenylquinone-induced writhing model in mice (Siegmund et al, 1957). A serial 2-fold dosage variance was used in the test, from 128 mg/kg to 1 mg/kg (8 doses in total). Groups of 3 male or female ICR mice weighing 22±2 g were employed. Variant doses (1, 2, 4, 8, 16, 32, 64 and 128 mg/kg) of test substances were administered intraperitoneally (IP). A vehicle of 2% Tween 80 in 0.9% NaCl was used for the intraperitoneal injection. The control group received vehicle alone. […] A reduction in the number of writhes by 50 percent or more (≧50%) relative to the vehicle-treated group indicated possible analgesic activity.
(§2) In each case, a serial 2-fold dosage variance was used in the test, from 128 mg/kg to 1 mg/kg (8 doses in total). Groups of 3 male or female ICR mice weighing 22±2 g were employed. Variant doses (1, 2, 4, 8, 16, 32, 64 and 128 mg/kg) of test substances were administered intraperitoneally (IP). A vehicle of 2% Tween 80 in 0.9% NaCl was used for the intraperitoneal injection. The control group received vehicle alone. […] A reduction in the number of writhes by 50 percent or more (≧50%) relative to the vehicle-treated group indicated possible analgesic activity.
(In general: In writhing tests, fewer writhes than in controls are read as antinociception.)

Series [2] relates to ICR mice. The series can be described thus: Straub tail behaviour (indicator of CNS activity) in writhing-study mice. Conditions: for Straub tail behaviour: any doses (1 to 128 mg/kg IP).
The test system of series [3] is ICR mice. Nature of the series: Phenylquinone-induced writhing model in mice (writhes counted in following 5-10 minute period). The format is in vivo. Conditions: for No. of Writhings, Individual: individual mice; for % Inhibition: relative to vehicle group. On the procedure:
as §1
Testing on compounds KRS-6-41, KRS-6-51, and KRS-6-71 was also carried out under contract by MDS Services—Taiwan Ltd. The study was designed to evaluate the effects of the compounds as analgesics in the phenylquinone-induced writhing assay described in detail in Example 10 (Siegmund et al, 1957).
as §2

For a further series, the target named is T1, human κ-opiate receptor (Homo sapiens, UniProt P41145).
T1 construct: purchased MDS Pharma Services 260210
T1 sequence (P41145 whole entry): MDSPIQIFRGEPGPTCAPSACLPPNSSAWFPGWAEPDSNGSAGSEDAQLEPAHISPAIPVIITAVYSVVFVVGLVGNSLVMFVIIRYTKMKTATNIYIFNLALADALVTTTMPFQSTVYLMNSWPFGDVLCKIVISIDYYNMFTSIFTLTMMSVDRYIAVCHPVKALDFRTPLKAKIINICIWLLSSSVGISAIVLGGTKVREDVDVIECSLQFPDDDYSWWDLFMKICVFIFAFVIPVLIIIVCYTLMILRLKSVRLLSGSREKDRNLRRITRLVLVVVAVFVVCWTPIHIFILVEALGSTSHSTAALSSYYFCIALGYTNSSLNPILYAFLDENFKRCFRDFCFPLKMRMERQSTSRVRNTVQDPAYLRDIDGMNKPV
The series can be described thus: In vitro opiate receptor radioligand binding assay (MDS 260210). Conditions: test compound 10 μM, read-out: Percentage Inhibition of Radioligand Binding. On the procedure: (§3) To characterise the target specificity of the compounds, KRS-6-41, KRS-6-48 and KRS-6-51 were tested at a concentration of 10 μM for their ability to inhibit the binding of a radioligand to human δ-, κ-, or μ-opiate receptors in vitro using commercially available assays (MDS Pharma Services; assay catalogue numbers 260110, 260210 and 260410 respectively).

The next series has as its target T2, human μ-opiate receptor (Homo sapiens, UniProt P35372).
T2 construct: purchased MDS Pharma Services 260410
The series can be described thus: In vitro opiate receptor radioligand binding assay (MDS 260410). As to conditions: test compound 10 μM, read-out: Percentage Inhibition of Radioligand Binding. On the procedure:
as §3

The target in another series is T3, human δ-opiate receptor (Homo sapiens, UniProt P41143).
T3 construct: purchased MDS Pharma Services 260110
T3 sequence (P41143 whole entry): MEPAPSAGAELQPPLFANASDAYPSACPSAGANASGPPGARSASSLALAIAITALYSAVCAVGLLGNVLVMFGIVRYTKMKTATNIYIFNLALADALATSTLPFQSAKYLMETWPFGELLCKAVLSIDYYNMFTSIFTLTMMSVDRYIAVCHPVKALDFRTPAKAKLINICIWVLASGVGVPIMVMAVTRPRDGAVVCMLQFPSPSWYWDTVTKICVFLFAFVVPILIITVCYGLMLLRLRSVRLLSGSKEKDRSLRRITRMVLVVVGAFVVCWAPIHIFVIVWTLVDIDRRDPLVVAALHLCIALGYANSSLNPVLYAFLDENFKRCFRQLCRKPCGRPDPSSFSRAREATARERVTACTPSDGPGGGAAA
The series can be described thus: In vitro opiate receptor radioligand binding assay (MDS 260110). Conditions: test compound 10 μM, read-out: Percentage Inhibition of Radioligand Binding. On the procedure:
as §3

Series [4] deals with ICR mice. The series can be described thus: Phenylquinone-induced writhing model in mice, KRS-6-98 study (writhes counted in following 10-15 minute period). The format is in vivo. As to conditions: for Number of Writhings, Average / Number of Writhings, Individual / % Inhibition: 10-15 minute period; for Number of Writhings, Individual: individual mice; for % Inhibition: relative to vehicle group. On the procedure: Testing of compound KRS-6-98 was carried out under contract by MDS Pharma Services—Taiwan. The study was essentially the same as that set out in Examples 12 and 13, and was designed to evaluate the effect of the compound as an analgesic in the phenylquinone-induced writhing assay described in detail in Example 10 (Siegmund et al, 1957).
A serial two-fold dosage variance was used in the test, from 128 mg/kg to 1 mg/kg (8 doses in total). Twenty six groups of 3 male or female ICR mice weighing 22±2 g were employed. The variant doses of the test substance were administered intraperitoneally (IP). A vehicle of 2% Tween 80 in 0.9% NaCl was used for the intraperitoneal injection. The control group received the vehicle alone. […] A reduction of the number of writhes by 50% or more (≧50%) relative to the vehicle-treated group indicate a possible analgesic activity.

T2 sequence (P35372 whole entry): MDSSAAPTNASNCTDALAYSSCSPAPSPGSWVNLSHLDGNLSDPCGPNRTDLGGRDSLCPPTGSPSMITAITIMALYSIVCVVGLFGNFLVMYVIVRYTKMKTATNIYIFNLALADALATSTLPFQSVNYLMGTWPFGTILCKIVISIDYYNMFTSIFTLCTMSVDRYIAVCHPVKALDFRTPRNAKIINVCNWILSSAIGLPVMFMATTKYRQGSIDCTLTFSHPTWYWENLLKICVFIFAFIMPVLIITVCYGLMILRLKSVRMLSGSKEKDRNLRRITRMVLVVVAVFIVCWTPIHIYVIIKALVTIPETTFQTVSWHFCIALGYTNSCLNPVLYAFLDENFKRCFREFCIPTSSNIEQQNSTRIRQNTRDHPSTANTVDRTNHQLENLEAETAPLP

As a reminder, the % Inhibition is the percentage by which the read-out fell short of the control. A lower % Inhibition goes with little suppression. What is called inhibition is how much of the control response was suppressed. In the case of `CC(=N)NCCCN1CC[C@]23c4c5ccc(O)c4O[C@H]2[C@@H](O)C=CC3[C@H]1C5` (stereo partly drawn) [KRS-6-41, (5α,6α)-7,8-didehydro-4,5-epoxy-17-(3-acetamidinopropyl)morphinan, 3,6-diol], the test animals died with ICR mice [1] (64 mg/kg IP) was 1 of 3; in the series with ICR mice [1] (128 mg/kg IP), 3 of 3. In the series on ICR mice [2], the Straub tail behaviour result is reported as “None exhibited Straub tail behaviour”. Further, the “No. of Writhings, Average” value in the series on ICR mice [3] (1 mg/kg IP) was determined as 14; in the series on ICR mice [3] (2 mg/kg IP) it was 14; in the series with ICR mice [3] (4 mg/kg IP), 12; with ICR mice [3] (8 mg/kg IP) it was 10; in the series on ICR mice [3] (16 mg/kg IP), 9; in the series with ICR mice [3] (32 mg/kg IP), 8. Besides, the “No. of Writhings, Individual” value is 12 and 15 and 14 in the series on ICR mice [3] (1 mg/kg IP); 14 and 6 and 22 in the series with ICR mice [3] (2 mg/kg IP); 14 and 8 and 15 with ICR mice [3] (4 mg/kg IP); 6 and 10 and 14 in the series on ICR mice [3] (8 mg/kg IP); 5 and 16 and 6 in the series on ICR mice [3] (16 mg/kg IP); 4 and 10 and 11 in the series with ICR mice [3] (32 mg/kg IP). Further, the “No. of Writhings, Individual” value in the series on ICR mice [3] (64 mg/kg IP) was 4 and 14 and died; in the series with ICR mice [3] (128 mg/kg IP), “died”. Further, the “% Inhibition” value was 0% in the series on ICR mice [3] (1 mg/kg IP); 0% in the series with ICR mice [3] (2 mg/kg IP); 8% with ICR mice [3] (4 mg/kg IP); 23% with ICR mice [3] (8 mg/kg IP); 31% with ICR mice [3] (16 mg/kg IP); 38% in the series on ICR mice [3] (32 mg/kg IP). Moreover, the “inhibition of writhing (in words)” value in the series with ICR mice [3] (at doses of 32, 16, 8 and 4 mg/kg IP) is recorded as “a moderate level of inhibition of writhing”. The inhibition at 10 µM was found to be 58% at human κ-opiate receptor, 97% at human μ-opiate receptor and 68% on human δ-opiate receptor.

Regarding `CCC(=Nc1ccccc1)NCCCN1CC[C@]23c4c5ccc(O)c4O[C@H]2[C@@H](O)C=CC3[C@H]1C5` (stereo partly drawn) [KRS-6-48, (5α,6α)-7,8-didehydro-4,5-epoxy-17-((N-phenylpropionamidino)-propyl)morphinan, 3,6-diol], the Straub tail behaviour entry in the series with ICR mice [2] is given as “did not exhibit Straub tail behaviour”. Besides, the “No. of Writhings, Average” value with ICR mice [3] (1 mg/kg IP) turned out to be 14; in the series with ICR mice [3] (2 mg/kg IP), 13; in the series with ICR mice [3] (4 mg/kg IP), 9; with ICR mice [3] (8 mg/kg IP), 7; in the series with ICR mice [3] (16 mg/kg IP), 6; in the series with ICR mice [3] (32 mg/kg IP), 1. Moreover, the “No. of Writhings, Average” value in the series on ICR mice [3] (64 mg/kg IP) and in the series with ICR mice [3] (128 mg/kg IP) was 0 throughout. Further, the “No. of Writhings, Individual” value in the series with ICR mice [3] (1 mg/kg IP) is 10 and 20 and 13; in the series with ICR mice [3] (2 mg/kg IP), 8 and 20 and 10; in the series on ICR mice [3] (4 mg/kg IP), 10 and 8 and 9; with ICR mice [3] (8 mg/kg IP), 12 and 4 and 5; with ICR mice [3] (16 mg/kg IP), 1 and 13 and 4; in the series on ICR mice [3] (32 mg/kg IP), 0 and 1 (2×). The “No. of Writhings, Individual” value with ICR mice [3] (64 mg/kg IP) and with ICR mice [3] (128 mg/kg IP) was 0 throughout. Moreover, the “% Inhibition” value came out at 0% with ICR mice [3] (1 mg/kg IP); 0% in the series with ICR mice [3] (2 mg/kg IP); 31% in the series on ICR mice [3] (4 mg/kg IP); 46% in the series on ICR mice [3] (8 mg/kg IP); 54% in the series with ICR mice [3] (16 mg/kg IP); 92% with ICR mice [3] (32 mg/kg IP). Also, the “% Inhibition” value with ICR mice [3] (64 mg/kg IP) and in the series with ICR mice [3] (128 mg/kg IP) was 100% throughout. The “analgesic activity in writhing model (in words)” value in the series on ICR mice [3] (at doses of 128, 64, 32 and 16 mg/kg IP) is given as “Very significant activity”. The inhibition at 10 µM at human κ-opiate receptor was 48%; on human μ-opiate receptor, 97%; on human δ-opiate receptor it was 29%.

Take `CCC(=Nc1ccc(F)cc1)NCCCN1CC[C@]23c4c5ccc(O)c4O[C@H]2[C@@H](O)C=C[C@H]3[C@H]1C5` [KRS-6-98]: the “Number of Writhings, Average” value with ICR mice [4] (1 mg/kg IP) is on record as 10; in the series on ICR mice [4] (2 mg/kg IP), 7; in the series with ICR mice [4] (4 mg/kg IP), 7; in the series with ICR mice [4] (8 mg/kg IP) it was 5; in the series with ICR mice [4] (16 mg/kg IP), 4; with ICR mice [4] (32 mg/kg IP) it was 0. Besides, the “Number of Writhings, Average” value in the series on ICR mice [4] (64 mg/kg IP) and in the series on ICR mice [4] (128 mg/kg IP) was 0 each time. Besides, the “Number of Writhings, Individual” value with ICR mice [4] (1 mg/kg IP) was 12 and 10 and 8; with ICR mice [4] (2 mg/kg IP) it was 7 (2×) and 6; in the series on ICR mice [4] (4 mg/kg IP), 10 and 7 and 4; in the series with ICR mice [4] (8 mg/kg IP) it was 6 and 7 and 2; in the series with ICR mice [4] (16 mg/kg IP), 3 and 6 and 4; in the series on ICR mice [4] (32 mg/kg IP), 0. For the same compound, the “Number of Writhings, Individual” value in the series with ICR mice [4] (64 mg/kg IP) and in the series with ICR mice [4] (128 mg/kg IP) was 0 each time. Moreover, the “% Inhibition” value in the series with ICR mice [4] (1 mg/kg IP) is on record as 44%; with ICR mice [4] (2 mg/kg IP), 61%; in the series on ICR mice [4] (4 mg/kg IP) it was 61%; in the series on ICR mice [4] (8 mg/kg IP), 72%; in the series on ICR mice [4] (16 mg/kg IP), 78%; with ICR mice [4] (32 mg/kg IP), 100%. Further, the “% Inhibition” value in the series with ICR mice [4] (64 mg/kg IP) and in the series with ICR mice [4] (128 mg/kg IP) was 100% each time. Also, the “analgesic activity in writhing model (in words)” value in the series with ICR mice [4] (at all dose levels from 128 down to 2 mg/kg IP) was “significant activity”.

In the case of `CN1CC[C@]23c4c5ccc(O)c4O[C@H]2[C@@H](O)C=C[C@H]3[C@H]1C5` [Morphine, reference compound], the “test animals exhibiting Straub tail phenomenon” value in the series on ICR mice [2] (3 mg/kg IP) is on record as 2 of 3. Besides, in the series with ICR mice [3] (3 mg/kg IP), the “No. of Writhings, Average” value turned out to be 0; the “No. of Writhings, Individual” value stood at 0; the “% Inhibition” value is recorded as 100%.

Values taken from patent publication US20060111381A1, “Amidine compounds” (priority 2002, published 2006).
